Experimental data: patent US20250064990A1, “METHODS OF SCREENING FOR VMAT2 INHIBITORS” (Neurocrine Biosciences, Inc., priority 2021, published 2025)

Columns and labels:
[1] = NBI-750142 concentration in cynomolgus monkey plasma by LC-MS/MS; assay type: in vivo, cynomolgus monkeys (Macaca fascicularis); details: for concentration at 30 min / concentration at 60 min / concentration at 90 min / concentration at 120 min / concentration at 150 min / concentration at 180 min / concentration at 1 min: cynomolgus monkey, intravenous
Experimental: During each scan, whole blood PK samples were collected (in K2 EDTA tubes) at pre-dose (−5 min), and post-dose at 1 (end of bolus), 30, 60 (just prior to [^18F]AV-133 radiopharmaceutical administration), 90, 120, 150, 180 (end of scan) minutes after test article administration. PK samples were approximately 1 mL each (8 mL total, including pre-dose sample). PK sample collection times were relative to start of NBI-750142 bolus administration.
NBI-750142 concentration in cynomolgus monkey plasma samples was analyzed using a qualified LC-MS/MS bioanalytical method. […] Plasma samples were processed using protein precipitation extraction with 0.1% formic acid in acetonitrile and the addition of stable deuterium isotope labeled internal standard NBI-750142-D6. Processed samples were chromatographically separated on a C18 column and coupled to a Sciex API 4000 triple quadrupole mass spectrometer.
The method used in this study was qualified for a range of 0.250 to 250 ng/mL based on the analysis of 100 μL of plasma by LC-MS-MS. Quantitation was performed using a weighted 1/×2 linear least squares regression analysis generated from calibration standards. The protein precipitation extraction procedure began with the addition of internal standard solution (20.0 μL of approximately 100 ng/mL deuterated NBI-750142-D6). After adding 400 μL of acetonitrile/formic acid (1000:1.00), the tubes were sealed, vortexed and centrifuged. Subsequently, 100 μL of the supernatant was transferred to a new plate containing 400 μL of water/formic acid (1000:1.00). […] A triple quadrupole mass spectrometer (Sciex API 4000) equipped with TurboIonSpray source was used in the positive ion mode. Quantitation was based on multiple reaction monitoring (MRM) of m/z transitions of NBI-750142 and NBI-750142-D6.

[2] = NBI-750142 plasma concentration in healthy subjects; assay type: in vivo; details: human, 18 h post single oral dose, across cohorts, approximately, read-out: NBI-750142 plasma concentrations at T2
[3] = 0.026 mg/kg, GC786, 0.026 mg/kg i.v.
[4] = 0.084 mg/kg, EC865, 0.084 mg/kg i.v.
[5] = 0.26 mg/kg, GC786, 0.26 mg/kg i.v.
[6] = 0.26 mg/kg, LC206, 0.26 mg/kg i.v.
[7] = 0.52 mg/kg, EC865, 0.52 mg/kg i.v.
[8] = 0.78 mg/kg, GC786, 0.78 mg/kg i.v.

COc1cc2c(cc1OC)[C@H]1CN(C)[C@H](CC(C)(C)C)CN1CC2 [NBI-750142]
Mean ng/mL NBI-750142 Concentration during PET Scan (60-180 min) ([1]; EC865, 0.084 mg/kg i.v.): 6.4 ng/mL
Mean ng/mL NBI-750142 Concentration during PET Scan (60-180 min) ([1]; EC865, 0.52 mg/kg i.v.): 37.6 ng/mL
Mean ng/mL NBI-750142 Concentration during PET Scan (60-180 min) ([1]; GC786, 0.026 mg/kg i.v.): 2.9 ng/mL
ng/mL NBI-750142 at 1 min ([1]; GC786, 0.026 mg/kg i.v., BLQ = <0.250 ng/mL): BLQ
Mean ng/mL NBI-750142 Concentration during PET Scan (60-180 min) ([1]; GC786, 0.26 mg/kg i.v.): 12.3 ng/mL
Mean ng/mL NBI-750142 Concentration during PET Scan (60-180 min) ([1]; GC786, 0.78 mg/kg i.v.): 74.5 ng/mL
Mean ng/mL NBI-750142 Concentration during PET Scan (60-180 min) ([1]; LC206, 0.26 mg/kg i.v.): 35.7 ng/mL
concentration at 30 min [1, 3]: 2.31 ng/mL
concentration at 60 min [1, 3]: 2.24 ng/mL
concentration at 90 min [1, 3]: 2.56 ng/mL
concentration at 120 min [1, 3]: 2.69 ng/mL
concentration at 150 min [1, 3]: 3.69 ng/mL
concentration at 180 min [1, 3]: 3.1 ng/mL
concentration at 1 min [1, 4]: 108 ng/mL
concentration at 30 min [1, 4]: 7.42 ng/mL
concentration at 60 min [1, 4]: 6.04 ng/mL
concentration at 90 min [1, 4]: 5.91 ng/mL
concentration at 120 min [1, 4]: 5.85 ng/mL
concentration at 150 min [1, 4]: 7.34 ng/mL
concentration at 180 min [1, 4]: 7.07 ng/mL
concentration at 1 min [1, 5]: 102 ng/mL
concentration at 30 min [1, 5]: 18.4 ng/mL
concentration at 60 min [1, 5]: 10.6 ng/mL
concentration at 90 min [1, 5]: 6.85 ng/mL
concentration at 120 min [1, 5]: 13.4 ng/mL
concentration at 150 min [1, 5]: 15.2 ng/mL
concentration at 180 min [1, 5]: 15.3 ng/mL
concentration at 1 min [1, 6]: 119 ng/mL
concentration at 30 min [1, 6]: 31 ng/mL
concentration at 60 min [1, 6]: 26 ng/mL
concentration at 90 min [1, 6]: 38.3 ng/mL
concentration at 120 min [1, 6]: 41.1 ng/mL
concentration at 150 min [1, 6]: 37.7 ng/mL
concentration at 180 min [1, 6]: 35.2 ng/mL
concentration at 1 min [1, 7]: 295 ng/mL
concentration at 30 min [1, 7]: 45.1 ng/mL
concentration at 60 min [1, 7]: 36.9 ng/mL
concentration at 90 min [1, 7]: 35.3 ng/mL
concentration at 120 min [1, 7]: 36.2 ng/mL
concentration at 150 min [1, 7]: 38.4 ng/mL
concentration at 180 min [1, 7]: 41.3 ng/mL
concentration at 1 min [1, 8]: 186 ng/mL
concentration at 30 min [1, 8]: 63 ng/mL
concentration at 60 min [1, 8]: 65.2 ng/mL
concentration at 90 min [1, 8]: 69.9 ng/mL
concentration at 120 min [1, 8]: 75.1 ng/mL
concentration at 150 min [1, 8]: 76 ng/mL
concentration at 180 min [1, 8]: 86.5 ng/mL
concentration at 18 h [2]: 0.3 to 10 ng/mL
